Legend:
[1] = test system: thymidine kinase extracted from human cells; assay: Binding affinity with thymidine kinase extracted from human cells (Example 6)
Procedure: (§1) The methylmercapto composition, as described in Example 5. was tested for binding affinity with thymidine kinase from various sources. Viruses which induce the production of thymidine kinase, induce thymidine kinase specific to the virus. […] It is believed that the compound of the invention, in order to become active in inhibiting the replication of the virus, must become phosphorylated. For such phosphorylation to occur, the thymidine kinase must first bind to the compound. Since binding with thymidine kinase produced by the virus is much more efficient and effective than binding with thymidine kinase from other sources, phosphorylation of the compound occurs more rapidly in the presence of active viruses producing thymidine kinase. The compound, activated by phosphorylation, then is able to interfere with replication of the virus.

[2] = molecular target: thymidine kinase extracted from cells infected with herpes simplex 1 virus (Human alphaherpesvirus 1 strain 17, UniProt P0DTH5); assay: Binding affinity with thymidine kinase extracted from cells infected with herpes simplex 1 virus (Example 6); details: herpes simplex 1 virus infected cells
Procedure: as §1

HSV-1 = assay: Viral inhibition, HSV-1 (Example 7, method of Example 5); assay type: cell-based, herpes simplex type 1; details: Human alphaherpesvirus 1
Procedure: (§2) In accordance with the present invention, 1-(2-Deoxy-β-D-ribofuranosyl)-5-(methylmercapto)-2-pyrimidinone is prepared essentially in accordance with the procedure set forth in "Snythesis and Antiviral Activity of 1-(2-Deoxy-β-D-ribofuranosyl)-5-(methylmercapto)-2-pyrimidinone" by Schroeder and Bardos and Cheng, Volume 24, page 109, January 1981. HeLa cells were infected in 1640 RPMI medium with herpes simplex type 1 (HSV-1) and independently with herpes simplex type 2 (HSV-2) virus at a multiplicity of 5 to 10 plaque forming units per cell. The composition of 1640 RPMI medium is reported in "Biological Activity of 5 Ethyl, 5 Propyl, and 5 Vinyl 2'-Deoxyuridine" by Cheng et al published in Antimicrobial Agents and Chemotherapy, Volume 10, beginning at page 119 (1976). 1640 RPMI medium is commercially available from Gibco Company, Grand Island, N.Y. After 1 hour, virus absorption, the drugs were added. Resulting cultures were analyzed for virus titer at 24 hours post infection a described in the procedure set forth in "Biological Activity of 5-Ethyl, 5-Propyl and 5-Vinyl 2'-uridine" by Cheng et al. The results are set forth in Table 2. The numbers set forth in Table 2 show the number of plaque forming units in the control which contained no methylmercapto compound and the number of units at concentrations of 100, 200 and 400 micromoles of the methylmercapto compound. The results clearly indicate substantial decrease in the number of plaque forming units in the presence of 1-(2-Deoxy-β-D-ribofuranosyl)-5-(methylmercapto)-2-pyrimidinone.
(§3) The above described methyl compound was tested for viral inhibition substantially in accordance with the method of Example 5 except that the concentrations were 50 and 100 micromolar.

HSV-2 = assay: Viral inhibition, HSV-2 (Example 7, method of Example 5); assay type: cell-based, herpes simplex type 2; details: Human alphaherpesvirus 2
Procedure: as §2, §3

[3] = molecular target: thymidine kinase extracted from Varicella zoster virus infected cells (Human herpesvirus 3 strain Dumas, UniProt P09250); assay: Binding affinity with thymidine kinase from Varicella zoster virus infected cells (Example 6)
Procedure: as §1

HSV-1(Kos) = assay: Virus titer in HSV-1 infected HeLa cells, 24 hours post infection (Example 5); assay type: cell-based, herpes simplex type 1; details: control 1.5 × 10^7
Procedure: as §2

HSV-2 (333) = assay: Virus titer in HSV-2 infected HeLa cells, 24 hours post infection (Example 5); assay type: cell-based, herpes simplex type 2; details: control 1.2 × 10^7
Procedure: as §2

[4] = 50 micromolar, vs untreated control

Chain of thymidine kinase extracted from cells infected with herpes simplex 1 virus (P0DTH5 whole entry): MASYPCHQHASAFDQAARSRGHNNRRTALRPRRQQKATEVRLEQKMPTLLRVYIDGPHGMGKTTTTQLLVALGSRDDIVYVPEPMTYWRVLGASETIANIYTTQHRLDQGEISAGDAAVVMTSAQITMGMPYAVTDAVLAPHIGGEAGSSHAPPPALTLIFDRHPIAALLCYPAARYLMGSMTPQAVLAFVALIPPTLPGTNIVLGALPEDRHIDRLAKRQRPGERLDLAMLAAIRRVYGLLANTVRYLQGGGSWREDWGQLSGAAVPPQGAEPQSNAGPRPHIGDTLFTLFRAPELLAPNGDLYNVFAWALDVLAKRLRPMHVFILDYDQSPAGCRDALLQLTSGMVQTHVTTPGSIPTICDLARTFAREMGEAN
Chain of thymidine kinase extracted from Varicella zoster virus infected cells (P09250 whole entry, looked up): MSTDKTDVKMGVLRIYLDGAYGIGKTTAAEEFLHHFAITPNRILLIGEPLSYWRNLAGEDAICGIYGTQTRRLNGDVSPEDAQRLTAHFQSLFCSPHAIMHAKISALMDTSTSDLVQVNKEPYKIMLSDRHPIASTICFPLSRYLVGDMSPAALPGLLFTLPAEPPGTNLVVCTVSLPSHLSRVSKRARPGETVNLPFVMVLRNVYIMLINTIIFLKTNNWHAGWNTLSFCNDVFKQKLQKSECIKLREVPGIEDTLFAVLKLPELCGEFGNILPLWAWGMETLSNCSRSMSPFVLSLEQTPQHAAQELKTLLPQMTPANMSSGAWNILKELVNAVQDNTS

## CSc1cnc(=O)n([C@H]2C[C@H](O)[C@@H](CO)O2)c1 [methylmercapto compound, 1-(2-Deoxy-β-D-ribofuranosyl)-5-(methylmercapto)-2-pyrimidinone]
[1]
  binding affinity with thymidine kinase: little binding affinity
[2]
  binding affinity with thymidine kinase: great binding affinity
HSV-1; [4]
  inhibition at 50 µM: 41.1%
HSV-1; 100 micromolar
  inhibition at 100 µM: 83.8%
HSV-2; [4]
  inhibition at 50 µM: 57.2%
HSV-2; 100 micromolar
  inhibition at 100 µM: 79.3%
[3]
  binding affinity with thymidine kinase: great binding affinity
HSV-1(Kos); 100 μM
  plaque-forming units/mL, HSV-1(Kos): 6.4 × 10^7 plaque-forming units/mL
HSV-1(Kos); 200 μM
  plaque-forming units/mL, HSV-1(Kos): 1.7 × 10^6 plaque-forming units/mL
HSV-1(Kos); 400 μM
  plaque-forming units/mL, HSV-1(Kos): 3.4 × 10^5 plaque-forming units/mL
HSV-2 (333); 100 μM
  plaque-forming units/mL, HSV-2 (333): 1.3 × 10^7 plaque-forming units/mL
HSV-2 (333); 200 μM
  plaque-forming units/mL, HSV-2 (333): 3.1 × 10^6 plaque-forming units/mL
HSV-2 (333); 400 μM
  plaque-forming units/mL, HSV-2 (333): 3.2 × 10^5 plaque-forming units/mL

From patent US4895937A, “5-ioso-2-pyrimidinone nucleoside” (The Research Foundation of State University of New York, priority 1988, dated 1990)
